Data as given in the supplement of paper PMC11451515.

Test system: P12-Ichikawa
Assay: cell viability relative to DMSO control; higher = less cytotoxic
Details: 48 h
How it was run: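 Viability is a per-plate percentage relative to DMSO wells, with cell-free wells as background. CellTiter-Glo One luminescence was read after 48 h at 37°C on 1536-well plates (5 μl) of NOMO1 or SEM (500 cells/well) or P12-Ichikawa (1000 cells/well) leukemia cells. The cells had been adapted for at least four passages in each medium and pin-dosed with library compounds in DMSO from 47 μM to 0.79 nM in 11 threefold steps.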

[1] = HPLM + 10% dialyzed FBS, 0.000781 µM
[2] = HPLM + 10% dialyzed FBS, 0.00234 µM
[3] = HPLM + 10% dialyzed FBS, 0.00702 µM
[4] = HPLM + 10% dialyzed FBS, 0.0211 µM
[5] = HPLM + 10% dialyzed FBS, 0.0632 µM
[6] = HPLM + 10% dialyzed FBS, 0.19 µM
[7] = HPLM + 10% dialyzed FBS, 0.569 µM
[8] = HPLM + 10% dialyzed FBS, 1.71 µM
[9] = HPLM + 10% dialyzed FBS, 5.12 µM
[10] = HPLM + 10% dialyzed FBS, 15.4 µM
[11] = HPLM + 10% dialyzed FBS, 46.1 µM
[12] = RPMI 5 mM glucose + 10% FBS, 0.000781 µM
[13] = RPMI 5 mM glucose + 10% FBS, 0.00234 µM
[14] = RPMI 5 mM glucose + 10% FBS, 0.00702 µM
[15] = RPMI 5 mM glucose + 10% FBS, 0.0211 µM
[16] = RPMI 5 mM glucose + 10% FBS, 0.0632 µM
[17] = RPMI 5 mM glucose + 10% FBS, 0.19 µM
[18] = RPMI 5 mM glucose + 10% FBS, 0.569 µM
[19] = RPMI 5 mM glucose + 10% FBS, 1.71 µM
[20] = RPMI 5 mM glucose + 10% FBS, 5.12 µM
[21] = RPMI 5 mM glucose + 10% FBS, 15.4 µM
[22] = RPMI 5 mM glucose + 10% FBS, 46.1 µM
[23] = RPMI 5 mM glucose + 10% dialyzed FBS, 0.000781 µM
[24] = RPMI 5 mM glucose + 10% dialyzed FBS, 0.00234 µM
[25] = RPMI 5 mM glucose + 10% dialyzed FBS, 0.00702 µM
[26] = RPMI 5 mM glucose + 10% dialyzed FBS, 0.0211 µM
[27] = RPMI 5 mM glucose + 10% dialyzed FBS, 0.0632 µM
[28] = RPMI 5 mM glucose + 10% dialyzed FBS, 0.19 µM
[29] = RPMI 5 mM glucose + 10% dialyzed FBS, 0.569 µM
[30] = RPMI 5 mM glucose + 10% dialyzed FBS, 1.71 µM
[31] = RPMI 5 mM glucose + 10% dialyzed FBS, 5.12 µM
[32] = RPMI 5 mM glucose + 10% dialyzed FBS, 15.4 µM
[33] = RPMI 5 mM glucose + 10% dialyzed FBS, 46.1 µM

SMILES | cell viability [1] | cell viability [2] | cell viability [3] | cell viability [4] | cell viability [5] | cell viability [6] | cell viability [7] | cell viability [8] | cell viability [9] | cell viability [10] | cell viability [11] | cell viability [12] | cell viability [13] | cell viability [14] | cell viability [15] | cell viability [16] | cell viability [17] | cell viability [18] | cell viability [19] | cell viability [20] | cell viability [21] | cell viability [22] | cell viability [23] | cell viability [24] | cell viability [25] | cell viability [26] | cell viability [27] | cell viability [28] | cell viability [29] | cell viability [30] | cell viability [31] | cell viability [32] | cell viability [33]
CC1(C)NC(=O)N(c2ccc([N+](=O)[O-])c(C(F)(F)F)c2)C1=O | 96.1% | 87.3% | 90.1% | 89.5% | 101% | 90.9% | 89.6% | 87.8% | 77.1% | 85.2% | 80% | 88.4% | 82.8% | 82.5% | 95.2% | 96.2% | 92% | 90.1% | 74.9% | 82.8% | 82.9% | 75.8% | 77.6% | 81% | 75.6% | 80% | 83.4% | 85.7% | 78.4% | 77.2% | 70.7% | 75% | 67.8%
CC(C)C[C@@H](C(=O)N[C@H](C(=O)OC1CCCC1)c1ccccc1)[C@H](O)C(=O)NO | 109% | 111% | 112% | 114% | 108% | 108% | 104% | 105% | 95.5% | 86.8% | 59.7% | 103% | 119% | 114% | 113% | 107% | 116% | 110% | 93.8% | 89.6% | 69.8% | 37.1% | 112% | 113% | 115% | 116% | 111% | 103% | 110% | 102% | 89% | 89.6% | 35.9%
Cc1ccc(C)c(OCCCC(C)(C)C(=O)O)c1 | 87% | 92.4% | 90.8% | 95% | 101% | 97.9% | 93.2% | 102% | 106% | 98% | 92.1% | 90% | 86.9% | 84.5% | 90.7% | 91.1% | 92.9% | 89% | 91.7% | 84.1% | 92.4% | 97.1% | 81.2% | 82.9% | 84.3% | 92.6% | 84.5% | 87.7% | 85.5% | 86.6% | 88.8% | 88% | 90%
CC(C)(OCc1nn(Cc2ccccc2)c2ccccc12)C(=O)O | 104% | 101% | 101% | 104% | 102% | 96% | 103% | 101% | 101% | 96.3% | 105% | 99.3% | 92.4% | 104% | 95.9% | 101% | 88.6% | 98.6% | 94.9% | 96.2% | 92.8% | 94.5% | 97.1% | 89.1% | 95.8% | 90.1% | 92.6% | 84.6% | 87.9% | 89.3% | 88.8% | 85.8% | 85%
CCCCC(F)(F)[C@@]1(O)CC[C@H]2[C@@H](CC(=O)[C@@H]2CCCCCCC(=O)O)O1 | 128% | 123% | 120% | 124% | 122% | 116% | 117% | 103% | 108% | 111% | 113% |  |  |  |  |  |  |  |  |  |  |  |  |  |  |  |  |  |  |  |  |  | 
Clc1ccc(C(Cn2ccnc2)OCc2ccc(Sc3ccccc3)cc2)c(Cl)c1 (configuration not stated) | 103% | 110% | 107% | 111% | 117% | 110% | 118% | 115% | 111% | 106% | 9.24% | 115% | 120% | 109% | 115% | 116% | 108% | 110% | 117% | 109% | 105% | 14.3% | 111% | 102% | 111% | 107% | 107% | 104% | 105% | 101% | 102% | 101% | 19.5%
O=C(Nc1ccncc1)C(=O)c1cn(Cc2ccc(Cl)cc2)c2ccccc12 | 103% | 101% | 111% | 96.6% | 70.5% | 35% | 18.4% | 21.8% | 40.1% | 35.2% | 46.5% | 104% | 98.6% | 107% | 96.5% | 62.8% | 34.8% | 16.5% | 24.3% | 34.1% | 39.2% | 44.1% | 90.9% | 94.2% | 97.2% | 98.2% | 79.1% | 46.5% | 20.8% | 23.1% | 34.6% | 36.2% | 46.6%
COc1ccccc1N1CCN(CC(O)COc2cccc3ccccc23)CC1 (configuration not stated) | 119% | 123% | 127% | 117% | 125% | 132% | 116% | 121% | 120% | 106% | 109% |  |  |  |  |  |  |  |  |  |  |  | 121% | 123% | 126% | 117% | 127% | 125% | 115% | 109% | 107% | 90.4% | 82.4%
NC(=O)c1ncn([C@@H]2O[C@H](CO)[C@@H](O)[C@H]2O)c1N | 120% | 124% | 120% | 119% | 122% | 121% | 122% | 117% | 115% | 115% | 104% |  |  |  |  |  |  |  |  |  |  |  |  |  |  |  |  |  |  |  |  |  | 
